Measurements from patent US12377079B2, “Antibacterial compounds and uses thereof” (The Children's Medical Center Corporation, priority 2018, dated 2025).
In brackets after ≈: the same amount, converted by molar mass. Entries after “also recorded” stand apart in the source; their conditions may differ. Where two headings read alike, the source gives them in different places.

Key:
[1] = test system: E. coli urine isolate EC235; test: Minimum inhibitory concentration (MIC); conditions: Escherichia coli, read-out: Minimum inhibitory concentration (MIC)
[2] = test system: E. coli urine isolate EC236; test: Minimum inhibitory concentration (MIC); conditions: Escherichia coli, read-out: Minimum inhibitory concentration (MIC)
K. pneumoniae Kp233 = test: Minimum inhibitory concentration (MIC); conditions: for MIC: Klebsiella pneumoniae
[3] = test system: CR-K. pneumoniae (ATCC BAA-1705); test: Minimum inhibitory concentration (MIC); conditions: for Minimum inhibitory concentration (MIC): CR-K. pneumoniae ATCC BAA-1705, PAβN + (40 μg/mL); for MIC: Klebsiella pneumoniae
Group A streptococcus = test: Minimum inhibitory concentration (MIC); conditions: read-out: Minimum inhibitory concentration (MIC)
K. pneumoniae (Kp233) [4] = test: Morphometric analysis by phase contrast microscopy; format: cell-based, Klebsiella pneumoniae; conditions: stationary phase cells, 4 hr; compounds 100 μl/mI alone or with PAβN, ampicillin 150 μg/mL
Description: (§1) Morphometric analysis. Carbapenem-susceptible Kp233 were treated as described for stationary phase viability assays, with the exception that negative control wells contained no DMSO and no antimicrobials. Ampicillin (150 μg/mL) was used as a positive control. Cells were incubated statically at 37° C. for 4 hr. Thirty μL from each well was transferred into a 24-well plate filled with 300 μL of LB broth. Images were captured with a 40× magnification lens using a Nikon Eclipse TE2000-E microscope. Morphometric analysis was carried out using IPLab 4.0 software.

P. aeruginosa PA01 = test: Minimum inhibitory concentration (MIC); conditions: for Minimum inhibitory concentration (MIC): P. aeruginosa PA01, PAβN + (40 μg/mL); for MIC: Pseudomonas aeruginosa, PA01, read-out: Minimum inhibitory concentration (MIC)
[5] = test system: K. pneumoniae strain BAA-1705; test: High-throughput screen / dose-response based on mannose fermentation; conditions: for Inhibition of mannose fermentation: 22 hours, pH-DM, concentrations similar to primary and cherry-pick screens
[6] = test system: CR K. pneumoniae strain BAA-1705; test: Dose-response growth inhibition (viable cell counts in LB broth); conditions: 22 hr in LB broth, concentrations tested 0.78-50 μg/mL
MRSA = test: Minimum inhibitory concentration (MIC); conditions: Staphylococcus aureus, read-out: Minimum inhibitory concentration (MIC)
resistant GNR = test: MIC with and without efflux pump inhibitor PAβN, resistant GNR as a group
HeLa S3 cells = test: Alamar Blue assay for cytotoxicity; format: cell-based, human; conditions: 20 hours
Description: Alamar Blue assay for cytotoxicity. HeLa S3 cells were cultured in Dulbecco's modified Eagle medium supplemented with 10% fetal bovine serum, 100 U/mL penicillin, and 100 μg/mL streptomycin. Each well of a 96-well microtiter plate (Nunclon Delta Surface, Thermo Scientific) was seeded with 10,000 cells in 100 μL of culture medium. Cells were incubated for 18 hr in a humidified incubator at 37° C. with 5% CO2 to allow attachment. Compounds were added to the adherent cells to yield a final concentration of 13 and 107 μg/mL. Positive control wells contained 0.1% Triton X-100, carrier control wells contained DMSO, and negative control wells contained medium and cells without DMSO. After addition of compounds, 0.1% Triton, or DMSO, plates were returned to the incubator. Cell viability was measured by resazurin reduction. Alamar Blue reagent (Invitrogen) was added to the cells after a 1.5 hr incubation with the test compounds. Cells were incubated for 20 hr, and then fluorescence was measured using the Infinite 200 (Tecan) with excitation and emission wavelengths of 550 nm and 590 nm, respectively. To calculate viability, the average fluorescence value of Triton-treated positive control wells was subtracted from that of untreated wells or wells containing test compounds. These values were then divided by the average fluorescence of untreated wells to give cell viability as a percentage of the negative control.

Kp233/pJBA110 = test: GFP fluorescence assay (protein synthesis); conditions: 15 hr
[7] = Particulate matter in aqueous media (micrographs); format: physicochemical; conditions: 100 μg/mL in culture medium
Description: as §1

A. baumanii = test: Minimum inhibitory concentration (MIC); conditions: for Minimum inhibitory concentration (MIC): A. baumanii, PAβN + (40 μg/mL); for MIC: Acinetobacter baumannii, read-out: Minimum inhibitory concentration (MIC)
K. pneumoniae (Kp233) [8] = test: Compound impact on bacterial viability (exponential and stationary phase); format: cell-based, Klebsiella pneumoniae; conditions: 4 hr; for Bacterial viability (CFU) with efflux pump inhibition: 100 μg/mL compound + PAβN 40 μg/ml
Description: Compound impact on bacterial viability. […] One hundred μL of each compound preparation was dispensed into the wells of a microtiter plate. Negative (untreated) wells contained LB with or without PAβN only. Stationary phase cell viability. A glycerol stock of the carbapenem-susceptible clinical strain of K. pneumoniae (Kp233) was inoculated into 1.5 mL of LB and incubated overnight (approximately 18 hr) at 37° C. with shaking. […] Cells were incubated statically at 37° C. for 4 hr, and viable counts were determined by plating. Exponential phase cell viability. Overnight cultures of Kp233 were diluted 1:5,000 into 50 mL of LB broth and incubated at 37° C. with shaking at 200 rpm. […] These cells were also washed twice with NS and inoculated into the wells of a microtiter plate prepared as described above. Cells were incubated statically at 37° C. for 4 hr, and viable counts were determined by plating.

Lassa virus entry = conditions: PubChem BioAssay; cited from earlier work
[9] = test system: S. aureus teichoic acid biosynthesis; conditions: secondary screens, after a hit in the primary screen; cited from earlier work
[10] = molecular target: Human tyrosyl-DNA phosphodiesterase 1 (TDP1) (Homo sapiens, UniProt Q9NUW8); conditions: PubChem BioAssay; cited from earlier work
Sequence of Human tyrosyl-DNA phosphodiesterase 1 (TDP1) (Q9NUW8 whole entry): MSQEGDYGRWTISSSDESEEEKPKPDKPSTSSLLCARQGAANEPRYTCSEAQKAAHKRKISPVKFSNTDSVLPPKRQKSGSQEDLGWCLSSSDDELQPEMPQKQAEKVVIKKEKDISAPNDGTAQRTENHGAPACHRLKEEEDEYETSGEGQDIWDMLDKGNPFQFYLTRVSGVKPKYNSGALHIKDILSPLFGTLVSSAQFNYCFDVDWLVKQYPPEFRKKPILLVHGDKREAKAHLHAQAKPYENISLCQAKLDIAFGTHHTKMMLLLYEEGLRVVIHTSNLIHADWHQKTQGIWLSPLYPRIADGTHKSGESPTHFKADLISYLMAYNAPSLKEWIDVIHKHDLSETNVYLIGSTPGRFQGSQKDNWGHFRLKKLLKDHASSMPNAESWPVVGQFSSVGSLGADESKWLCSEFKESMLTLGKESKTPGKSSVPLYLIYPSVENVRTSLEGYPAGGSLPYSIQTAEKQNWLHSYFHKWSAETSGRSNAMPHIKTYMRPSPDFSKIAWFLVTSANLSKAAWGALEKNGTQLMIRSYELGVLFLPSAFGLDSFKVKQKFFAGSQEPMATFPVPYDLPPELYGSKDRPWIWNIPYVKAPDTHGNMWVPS

Glut1 = molecular target: T1, Glut1 (Homo sapiens, UniProt P11166); conditions: high-throughput screen, PubChem BioAssay; cited from earlier work
T1 sequence (P11166 1-492): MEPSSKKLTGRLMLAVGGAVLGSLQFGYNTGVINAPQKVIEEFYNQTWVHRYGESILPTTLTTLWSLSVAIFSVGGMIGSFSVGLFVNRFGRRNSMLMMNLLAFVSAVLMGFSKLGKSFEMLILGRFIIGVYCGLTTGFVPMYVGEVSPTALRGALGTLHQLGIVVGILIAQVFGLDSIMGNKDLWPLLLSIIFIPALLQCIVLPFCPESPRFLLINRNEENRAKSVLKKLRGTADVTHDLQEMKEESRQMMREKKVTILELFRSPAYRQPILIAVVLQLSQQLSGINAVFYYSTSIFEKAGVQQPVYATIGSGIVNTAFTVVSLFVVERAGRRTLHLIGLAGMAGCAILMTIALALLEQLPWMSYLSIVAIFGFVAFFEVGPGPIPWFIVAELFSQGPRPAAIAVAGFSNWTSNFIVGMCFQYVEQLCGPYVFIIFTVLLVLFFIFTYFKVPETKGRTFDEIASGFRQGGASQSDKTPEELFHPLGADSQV

LmGT2 = LmGT2 (Leishmania mexicana, UniProt O61059); conditions: high-throughput screen, PubChem BioAssay; cited from earlier work
Sequence of LmGT2 (O61059 entry or part of it): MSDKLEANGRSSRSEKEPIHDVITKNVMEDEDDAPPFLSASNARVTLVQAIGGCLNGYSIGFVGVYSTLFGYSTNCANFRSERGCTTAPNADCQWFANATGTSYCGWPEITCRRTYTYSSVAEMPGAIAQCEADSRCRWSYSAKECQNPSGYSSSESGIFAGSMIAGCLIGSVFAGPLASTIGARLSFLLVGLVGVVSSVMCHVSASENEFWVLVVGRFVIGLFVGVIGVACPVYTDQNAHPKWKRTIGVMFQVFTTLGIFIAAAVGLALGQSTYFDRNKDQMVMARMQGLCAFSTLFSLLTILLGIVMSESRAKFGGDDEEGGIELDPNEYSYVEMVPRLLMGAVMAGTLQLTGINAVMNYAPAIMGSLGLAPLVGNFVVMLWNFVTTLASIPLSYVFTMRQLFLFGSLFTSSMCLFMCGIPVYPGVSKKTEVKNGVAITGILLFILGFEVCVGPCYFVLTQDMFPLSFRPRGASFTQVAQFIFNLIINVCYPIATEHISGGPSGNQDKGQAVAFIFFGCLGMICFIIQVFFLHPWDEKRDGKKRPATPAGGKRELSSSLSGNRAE

[11] = KP233, read-out: Minimum inhibitory concentration (MIC)
[12] = ATCCBAA1705, read-out: Minimum inhibitory concentration (MIC)
[13] = highest concentration used (100 μg/mL)
[14] = higher concentration (107 μg/mL)
[15] = exponential and stationary phase

Compound | MIC [1] [µg/mL] | MIC [2] [µg/mL] | MIC (K. pneumoniae Kp233; [11]) [µg/mL] | Minimum inhibitory concentration (MIC) [3] [µg/mL] | MIC [3, 12] [µg/mL] | MIC (Group A streptococcus) [µg/mL] | Cell shape / average particle size (K. pneumoniae (Kp233) [4]) | Minimum inhibitory concentration (MIC) (P. aeruginosa PA01) [µg/mL] | MIC (P. aeruginosa PA01) [µg/mL] | MIC (MRSA) [µg/mL] | Toxicity to HeLa S3 cells (viability by resazurin reduction) (HeLa S3 cells; 13 and 107 μg/mL) | Particulate matter in micrographs (insolubility in aqueous media) [7] | Minimum inhibitory concentration (MIC) (A. baumanii) [µg/mL] | MIC (A. baumanii) [µg/mL] | also measured
O=C(N[C@H](CO)[C@H](O)c1ccc([N+](=O)[O-])cc1)C(Cl)Cl [Cm, chloramphenicol, reference compound] | < 9 | < 9 | < 9 | 39 | 1250 (≈ 3870 µM) |  |  |  |  |  |  |  |  |  | Reduction of MIC by PAβN ([3]; K. pneumoniae, with PAβN versus without): 32 fold
Cc1nnc(SCC2=NN(c3nc4ccccc4[nH]3)C(=O)C2)s1 [Compound C17] | 96 (≈ 279 µM) | 96 (≈ 279 µM) | 48 (≈ 139 µM) | 48 | 96 (≈ 279 µM) | 96 (≈ 279 µM) | do not significantly alter cell shape | 48 | > 96 | 24 (≈ 69.7 µM) | least toxic; also recorded: not toxic | not | 24 | > 96 | Inhibition of mannose fermentation [5]: inhibited fermentation; Activity in cherry-pick re-test ([5]; dispensed by HP D300 digital dispenser): significant activity; Growth inhibition (CFU/ml) [6]: inhibited growth; Change of MIC on addition of PAβN (in words) (resistant GNR): minimally decreased; Bacterial growth (OD) and GFP fluorescence (Kp233/pJBA110; [13]): decreased both bacterial growth and protein synthesis
Cc1nn2c(=O)cc(-c3ccc(F)cc3)[nH]c2c1-c1ccccc1 [Compound F02] |  |  |  |  |  |  |  |  |  |  |  |  |  |  | Toxicity to HeLa S3 cells (viability by resazurin reduction) (HeLa S3 cells; [14]): moderately toxic
Cc1nn2c(=O)cc(-c3ccc(Cl)cc3)[nH]c2c1-c1ccccc1 [Compound N08] | > 96 | > 96 | > 96 | 6 | > 96 | > 96 | do not significantly alter cell shape | 12 | > 96 | < 0.75 | minimal toxicity | particulate matter was observed | 1.5 | > 96 | Reduction of MIC by addition of PAβN (resistant GNR): 1-2 logs; Toxicity to HeLa S3 cells (viability by resazurin reduction) (HeLa S3 cells; [14]): moderately toxic; Bacterial viability (CFU) with efflux pump inhibition (K. pneumoniae (Kp233) [8]; [15]): significantly potentiated the killing activity; also recorded: significantly decrease the viability; Bacterial growth (OD) and GFP fluorescence (Kp233/pJBA110; low concentrations): interfered with GFP fluorescence but not growth; Inhibition of Lassa virus entry (screen) (Lassa virus entry): flagged; Inhibition of teichoic acid biosynthesis [9]: not found to have this activity; Inhibition of TDP1 (screen) [10]: flagged
Clc1cc(Br)ccc1-c1ccc(CNCC2CCNCC2)o1 [Compound O06] | 96 (≈ 250 µM) | 96 (≈ 250 µM) | 96 (≈ 250 µM) | 96 | 96 (≈ 250 µM) | 48 (≈ 125 µM) | do not significantly alter cell shape | 24 | > 96 | 48 (≈ 125 µM) | most toxic | not | 24 | 48 (≈ 125 µM) | Activity in screen for Glut1 inhibitors (Glut1): active; Inhibition of mannose fermentation [5]: inhibited fermentation; Activity in screen for LmGT2 inhibitors (LmGT2): active; Change of MIC on addition of PAβN (in words) (resistant GNR): minimally decreased; Bacterial viability (CFU) with efflux pump inhibition (K. pneumoniae (Kp233) [8]; [15]): significantly potentiated the killing activity; also recorded: significantly decrease the viability; Bacterial viability (CFU) (K. pneumoniae (Kp233) [8]; 100 μg/mL compound alone, exponential and stationary phase): decreased the viability; Bacterial growth (OD) and GFP fluorescence (Kp233/pJBA110; [13]): decreased both bacterial growth and protein synthesis
C[C@H]1COc2c(N3CCN(C)CC3)c(F)cc3c(=O)c(C(=O)O)cn1c23 [Lev, levofloxacin, reference compound] | 0.015 (≈ 0.0415 µM) | 0.015 (≈ 0.0415 µM) | 0.031 (≈ 0.0858 µM) |  |  |  |  | 0.015 | 0.25 (≈ 0.692 µM) |  |  |  |  |  | Reduction of MIC by PAβN (P. aeruginosa PA01; P. aeruginosa, with PAβN versus without): 16 fold
CC1(C)S[C@@H]2[C@H](NC(=O)[C@H](N)c3ccccc3)C(=O)N2[C@H]1C(=O)O [ampicillin, reference compound] |  |  |  |  |  |  | formed filaments with significantly increased average particle size |  |  |  |  |  |  |  | 
O=C1C=C2C(=CCOC2O)O1 (centres unmarked) [patulin, reference compound] |  |  |  |  |  |  |  |  |  |  |  |  |  |  | Minimum inhibitory concentration (K. pneumoniae Kp233; K. pneumoniae Kp233, Defined Medium): 9.38 µg/mL (≈ 60.9 µM); MIC (K. pneumoniae Kp233; KP233, read-out: Minimum inhibitory concentration): 9.38 µg/mL (≈ 60.9 µM); MIC ([3]; ATCCBAA1705, read-out: Minimum inhibitory concentration, CR-K. pneumoniae ATCC BAA-1705, Defined Medium): 9.38 µg/mL (≈ 60.9 µM); MIC ([3]; ATCCBAA1705, read-out: Minimum inhibitory concentration, CR-K. pneumoniae ATCC BAA-1705, LB broth (rich medium)): 18.8 µg/mL (≈ 122 µM)
phenylalanine-arginine β-naphthylamide [PAβN, reference compound] |  |  |  |  |  |  |  |  |  |  |  |  |  |  | Bacterial viability (CFU) (K. pneumoniae (Kp233) [8]; PAβN 40 μg/mL alone, exponential or stationary phase): did not decrease the viability
